Measured values reported in the RepoRT retention time repository (doi:10.1021/acs.analchem.1c00972).
Where a name gives a salt, the structure may show the parent alone.

Legend:
Settings in all cases: stereoisomer not certain
[1] = RP, Waters ACQUITY UPLC BEH C18, 100 × 1 mm, 1.7 µm, 50 °C, 0.3 mL/min, estimated dead time 0.17 min; A: water + 10 mM ammonium bicarbonate; B: 10% water + 90% methanol + 10 mM ammonium bicarbonate; gradient (min/%B) 0/0 15/100 21/100 22/0 30/0
[2] = RP, Phenomenex Synergi Polar-RP, 100 × 3 mm, 2.5 µm, 40 °C, 0.4 mL/min, estimated dead time 1.1 min; A: water + 1 mM ammonium fluoride; B: methanol + 1 mM ammonium fluoride; C: acetonitrile; D: 50% isopropanol + 50% acetone; gradient (min/%B/%C/%D) 0/5/0/0 2/5/0/0 8/95/0/0 12/80/15/0 19/25/70/0 19.5/0/25/70 21.5/0/25/70 22.5/0/25/0 23/5/0/0
[3] = RP, Waters ACQUITY UPLC BEH C18, 100 × 1 mm, 1.7 µm, 50 °C, 0.3 mL/min, estimated dead time 0.17 min; A: water + 0.1% formic acid + 20 mM ammonium formate; B: methanol + 0.1% formic acid + 20 mM ammonium formate; gradient (min/%B) 0/0 15/100 21/100 22/0 30/0

| Structure (SMILES) | LC retention time [1] | LC retention time [2] | LC retention time [3] |
| --- | --- | --- | --- |
| Oc1ccc(Cl)cc1Cc1cc(Cl)ccc1O [Dichlorophen] | 15.1 min | 10.9 min | 15.2 min |
| Oc1ccccc1-c1ccccc1 [2-Phenylphenol] | 13.9 min | 9.93 min |  |
| NS(=O)(=O)C(F)(F)C(F)(F)C(F)(F)C(F)(F)C(F)(F)C(F)(F)C(F)(F)C(F)(F)F [Perfluorooctanesulfonamide] | 15.7 min | 10.6 min | 16.5 min |
| CCCCCCCCCCCCCCOS(=O)(=O)O [Tetradecylsulfate] | 17.4 min | 9.97 min | 17.2 min |
| N#Cc1nn(-c2c(Cl)cc(C(F)(F)F)cc2Cl)c(N)c1C(F)(F)F [Fipronil desulfinyl] | 15.4 min | 10.9 min | 15.1 min |
| O=c1[nH]cc(F)c(=O)[nH]1 [5-Fluorouracil] |  | 2.09 min | 7.72 min |
| CC(C)N1C(=O)c2ccccc2NS1(=O)=O [Bentazone] | 7.66 min | 7.2 min | 11.5 min |
| O=S(=O)(O)C(F)(F)C(F)(F)C(F)(F)C(F)(F)C(F)(F)C(F)(F)C(F)(F)C(F)(F)F [Perfluorooctanesulfonic acid] | 15.5 min | 9.25 min |  |
| Oc1ccc(Cc2ccc(O)cc2)cc1 [Bisphenol F] | 11.9 min | 9.94 min |  |
| O=C(O)C(F)(F)C(F)(F)C(F)(F)C(F)(F)C(F)(F)C(F)(F)C(F)(F)C(F)(F)C(F)(F)F [Perfluorodecanoic acid] | 16.1 min | 9.39 min | 15.9 min |
| Oc1ccc(Cl)cc1Cc1ccccc1 [Chlorophene] | 15.9 min | 11.2 min |  |
| O=C(O)C(F)(F)C(F)(F)C(F)(F)F [Perfluorobutanoic acid] | 7.16 min | 2.91 min | 7.57 min |
| CC(C)(c1cc(Br)c(O)c(Br)c1)c1cc(Br)c(O)c(Br)c1 [Tetrabromobisphenol A] | 14.6 min | 11.7 min | 16.6 min |
| O=C(O)C(F)(F)C(F)(F)C(F)(F)C(F)(F)C(F)(F)C(F)(F)C(F)(F)C(F)(F)C(F)(F)C(F)(F)C(F)(F)C(F)(F)C(F)(F)F [Perfluorotetradecanoic acid] | 17.7 min | 9.93 min | 17.7 min |
| CCC(C)c1cc([N+](=O)[O-])cc([N+](=O)[O-])c1O (stereo not given) [Dinoseb] | 12.4 min | 10 min | 15.5 min |
| O=S(=O)(O)NC1CCCCC1 [Cyclamate] | 6.33 min | 2.74 min | 6.54 min |
| NS(=O)(=O)c1cc2c(cc1Cl)NCNS2(=O)=O [Hydrochlorothiazide] | 4.67 min | 7.62 min | 5.2 min |
| CS(=O)(=O)c1ccc(C(=O)C2C(=O)CCCC2=O)c(Cl)c1 [Sulcotrione] |  | 7.69 min |  |
| O=C(NC(=O)c1c(F)cccc1F)Nc1ccc(Oc2ccc(C(F)(F)F)cc2Cl)cc1F [Flufenoxuron] |  | 11.9 min |  |
| O=C(O)COc1ccc(Cl)cc1Cl [24-Dichlorophenoxyacetic acid] |  | 8.06 min |  |
| Cc1cc(O)ccc1Cl [p-Chlorocresol] | 13 min | 8.57 min |  |
| CC(O)(CS(=O)(=O)c1ccc(F)cc1)C(=O)Nc1ccc(C#N)c(C(F)(F)F)c1 (stereo not given) [Bicalutamide] |  | 10.7 min |  |
| CCCCCCCCCc1ccc(O)cc1 [4-n-Nonylphenol] | 18.1 min | 11.6 min |  |
| O=c1[nH]c(Cl)c(Cl)cc1Cl [356-Trichloro-2-pyridinol] |  | 9.23 min |  |
| CC(C)(c1ccccc1)c1ccc(O)cc1 [4-Cumylphenol] | 15.7 min | 11.1 min |  |
| S=c1nc[nH]c2nc[nH]c12 [6-Mercaptopurine] |  | 3.32 min |  |
| Oc1ccc(Cl)cc1 [4-Chlorophenol] | 11.3 min | 8.39 min |  |
| N#Cc1cc(Br)c(O)c(Br)c1 [Bromoxynil] |  | 8.68 min |  |
| O=S(=O)(O)CCC(F)(F)C(F)(F)C(F)(F)C(F)(F)C(F)(F)C(F)(F)F [6-2fluorotelomer sulfonic acid] |  | 8.97 min |  |

Further lines, results first:

| LC retention time [1] | LC retention time [2] | LC retention time [3] | Structure (SMILES) |
| --- | --- | --- | --- |
| 16.4 min | 11.2 min | 17.3 min | Oc1c(Br)cc(Cl)cc1Cc1cc(Cl)cc(Br)c1O [Bromochlorophen] |
| 10.5 min | 9.61 min | 10.6 min | O=c1[nH]c2ccccc2s1 [2-hydroxybenzothiazole] |
| 16.6 min | 11.9 min |  | CC(C)(O)c1ccccc1CCC(SCC1(CC(=O)O)CC1)c1cccc(C=Cc2ccc3ccc(Cl)cc3n2)c1 (stereo not given) [Montelukast] |
| 8.6 min | 7.25 min | 8.66 min | O=S(=O)(O)c1ccc2ccccc2c1 [2-Naphthalene sulfonic acid] |
| 12.1 min | 8.57 min |  | CCc1cccc(C)c1N(C(=O)CS(=O)(=O)O)C(C)COC (stereo not given) [Metolachlor ESA] |
| 15.1 min | 9.26 min | 14.8 min | CCCCCCCCCCOS(=O)(=O)O [Decyl sulfate] |
| 14 min | 10.6 min |  | CCCCOC(=O)c1ccc(O)cc1 [Butylparaben] |
| 2.41 min | 2.11 min | 2.66 min | CC1=CC(=O)NS(=O)(=O)O1 [Acesulfame] |
| 13.2 min | 9.15 min | 14.3 min | O=C(O)c1cc(Oc2ccc(Cl)cc2Cl)ccc1[N+](=O)[O-] [Bifenox free acid] |
| 7.83 min | 8.54 min | 10.5 min | O=C(O)CCC(=O)c1ccc(F)cc1 [4-Fluorobenzoylpropionic acid] |
| 12.7 min | 10.2 min | 12.9 min | CCCOC(=O)c1ccc(O)cc1 [Propylparaben] |
| 14.7 min | 10.6 min |  | Cc1ccc(C(C)C)c(O)c1 [Thymol] |
| 12.7 min | 10 min | 12.5 min | Oc1cccc2ccccc12 [1-Naphthol] |
| 4.58 min | 2.92 min | 6.82 min | CC(=O)Nc1ccc(O)c(C(=O)O)c1 [N-Acetyl mesalazine] |
|  | 8.14 min | 7.69 min | CCCc1cc(=O)[nH]c(=S)[nH]1 [6-Propyl-2-thiouracil] |
| 17.5 min | 10.1 min | 17.2 min | CCCCCCCCCCCCc1ccccc1S(=O)(=O)O [Dodecylbenzenesulfonic acid] |
| 11.1 min | 9.81 min | 11.6 min | CCOC(=O)c1ccc(O)cc1 [Ethylparaben] |

| LC retention time [1] | LC retention time [2] | LC retention time [3] | Structure (SMILES) |
| --- | --- | --- | --- |
| 9.08 min | 9.32 min | 9.98 min | COC(=O)c1ccc(O)cc1 [Methylparaben] |
| 12.1 min | 9.42 min | 13.3 min | CCC(C)C(=O)OC1CC(O)C=C2C=CC(C)C(CCC(O)CC(O)CC(=O)O)C21 (stereo not given) [Pravastatin] |
| 14.9 min | 10.2 min | 17.7 min | O=C(Nc1ccc(Cl)c(Cl)c1)c1cc(Cl)cc(Cl)c1O [Tetrachlorosalicylanilide] |
| 14.3 min | 10.7 min | 14.1 min | CC(C)C(=O)Nc1ccc([N+](=O)[O-])c(C(F)(F)F)c1 [Flutamide] |
|  | 10.5 min | 15.4 min | COc1ccc2c(c1)c(CC(=O)O)c(C)n2C(=O)c1ccc(Cl)cc1 [Indometacin] |
|  | 11.1 min |  | Cc1ccc(-c2cc(C(F)(F)F)nn2-c2ccc(S(N)(=O)=O)cc2)cc1 [Celecoxib] |
|  | 10.1 min |  | O=C(O)Cc1ccccc1Nc1c(Cl)cccc1Cl [Diclofenac] |
|  | 8.45 min |  | NS(=O)(=O)c1cc(C(=O)O)c(NCc2ccco2)cc1Cl [Furosemide] |
|  | 10.3 min |  | COc1c(C)c2c(c(O)c1CC=C(C)CCC(=O)O)C(=O)OC2 [Mycophenolic acid] |
|  | 8.42 min |  | CCc1cccc(C)c1N(C(=O)C(=O)O)C(C)COC (stereo not given) [Metolachlor OA] |
|  | 9.49 min |  | CCCCc1nc(Cl)c(CO)n1Cc1ccc(-c2ccccc2-c2nn[nH]n2)cc1 [Losartan] |
|  | 10.3 min | 14.1 min | CC(C)Cc1ccc(C(C)C(=O)O)cc1 (stereo not given) [Ibuprofen] |
|  | 10.3 min | 18.3 min | CC(C)(c1ccc(O)cc1)c1ccc(O)cc1 [Bisphenol A] |
|  | 7.5 min |  | COCCN(C(=O)C(=O)O)c1c(C)cccc1C [Dimethachlor OA] |
|  | 8.32 min |  | COc1cc(O)c(C(=O)c2ccccc2)cc1S(=O)(=O)O [Benzophenone-4] |
|  | 9.33 min |  | CC(C)(Oc1ccc(CCNC(=O)c2ccc(Cl)cc2)cc1)C(=O)O [Bezafibrate] |
